Here are results for 16 molecules from publication PMC6332274, “In Silico Identification and in Vitro Activity of Novel Natural Inhibitors of Trypanosoma brucei Glyceraldehyde-3-phosphate-dehydrogenase” (Molecules, 2015).

The structures appear in SMILES notation. “Also recorded” adds a separate entry of the source. Like-named read-outs stand apart in the source and are kept apart here.

The test system of series [1] is T. brucei rhodesiense (STIB 900). Put plainly: In vitro antitrypanosomal activity against bloodstream forms. The series is classed as cell-based. The note with it: Trypanosoma brucei, read-out: T. brucei rhodesiense (STIB 900) IC50. The protocol: Compounds 1–5 were tested for their in vitro activity against bloodstream forms of T. brucei rhodesiense (causative agent of East African HAT).

The target of the next series is T1, recombinant TbGAPDH (Trypanosoma brucei brucei, UniProt P22512).
T1 construct: histidine tag (cleaved yes); made in house; host or cells: E. coli BL21 (DE3)
T1 sequence (P22512 whole entry): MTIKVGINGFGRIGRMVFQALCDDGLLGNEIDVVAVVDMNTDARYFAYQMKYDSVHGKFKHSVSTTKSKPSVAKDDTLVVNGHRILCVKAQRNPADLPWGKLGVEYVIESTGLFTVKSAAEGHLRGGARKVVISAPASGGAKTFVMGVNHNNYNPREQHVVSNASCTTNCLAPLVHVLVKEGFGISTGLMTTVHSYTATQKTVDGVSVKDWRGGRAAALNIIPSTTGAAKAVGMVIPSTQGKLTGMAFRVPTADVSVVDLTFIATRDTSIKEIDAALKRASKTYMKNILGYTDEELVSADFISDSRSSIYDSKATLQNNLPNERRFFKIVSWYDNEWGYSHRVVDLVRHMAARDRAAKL
Put plainly: TbGAPDH inhibition assay (spectrophotometric, NADH at 340 nm). The series is classed as biochemical. To be noted: for inhibition at 50 µM / % Inhibition at c = 50 µM: 50 µM test compound, n.i. = no inhibition at 50 µM. The protocol: To experimentally validate the predictions of the in silico screening, a spectrophotometric assay with recombinant TbGAPDH, measuring the increase of NADH during the conversion of 3-phosophoglyceraldehyde into 1,3-bisphosphoglycerate, was used. The increase of absorbance at 340 nm was measured for 1 min after the addition of the substrate. Initially, each test compound was added in a concentration of 50 µM and the slope of the resulting linear plots of absorbance vs. time compared to that of a control recorded in the absence of an inhibitor.
In order to determine the activity of TbGAPDH, a spectrophotometric assay was used as described before. For that purpose, the increasing amount of produced NADH was measured at 340 nm with a Hitachi U-2900 UV-VIS-Spectrophotometer as a linear indicator for the activity of the catalytic protein. The activity determined without the addition of an inhibitor was set to 100%; the measured inhibitions were calculated accordingly. The assay was performed at 30 °C, in a buffer of 0.1 M TEA, 0.1 M glycine and 0.1 M EDTA with varying concentrations of the tested compounds in a total volume of 1 mL containing 7.17 µg TbGAPDH, 1.5 mM NAD^+ and 0.5 mM G-3-P. The tested inhibitors were solved in DMSO, resulting in a final concentration of 0.1%–1% of solvent in the assay solution. […] Typically, 5–7 different concentrations were measured (each of them in triplicate) to determine IC50 values, which were calculated using the software “Prism 3.00” (GraphPad) via nonlinear regression analysis. The measured concentration/effect curves are shown in Supplementary Figures S14–S18.

The nature of series [2]: Cytotoxicity against mammalian cells. The series is classed as cell-based, rat.
In series [3] the test system is L6 rat skeletal myoblasts. Description: Cytotoxicity against mammalian cells. It is filed as cell-based. The note with it: SI = IC50(cytotoxicity)/IC50(parasite), L6 vs T. brucei rhodesiense.
Series [4] relates to TbGAPDH. Description: Previously known TbGAPDH inhibitors (literature). The note with it: literature IC50 12 µM compared with IC50 of Compound 2. It is filed as biochemical, Trypanosoma brucei. The procedure: In comparison to previously-known TbGAPDH inhibitors, the IC50 values of our compounds are quite low, so that these hits obtained from in silico screening can be considered quite strong inhibitors of the target enzyme. To our knowledge, the strongest TbGAPDH inhibitor known up to now is a synthetic adenosine derivative with an IC50 of […] [17].

The subject of series [5] is TbGAPDH. The note with it: most active inhibitor of natural origin previously known; cited from earlier work.
Setting [6] is: 30 °C, 1.5 mM NAD+, 0.5 mM G-3-P.
The mark [7] stands for this setting: 30 °C, 1.5 mM NAD+, 0.5 mM G-3-P, 5–7 concentrations in triplicate, nonlinear regression, read-out: IC50 (TbGAPDH inhibition).
[8] abbreviates: bloodstream forms, mean ± margin of deviation of two independent determinations.
Setting [9] is: L6 rat skeletal myoblasts, mean ± margin of deviation of two independent determinations, read-out: Cytotoxicity (L6) IC50.

What is called IC50 is the concentration that inhibits the measured activity by half. In the case of `Nc1nc(N)nc(Nc2ccc([As]3SCC(CO)S3)cc2)n1` (stereo not drawn) [Melarsoprol, reference compound], the IC50 in series [1] is 0.005 ± 0.001 µM.

By inhibition is commonly meant the drop in the measured response relative to a control, in per cent. Consider `CC(C)=CCc1c2c(c3occ(-c4ccc(O)c(O)c4)c(=O)c3c1O)C=CC(C)(C)O2` [NP-005755], for which the inhibition at 50 µM on recombinant TbGAPDH (setting [6]) is 44%.

In the case of `CCCCCCC/C=C/C=C/C(=O)NCCc1ccc(O)cc1` [NP-007496], the “% Inhibition at c = 50 µM” value at recombinant TbGAPDH (setting [6]) is on record as “n.i”.

As for `COc1cc(O)c2c(=O)c(-c3c(O)cc(O)c4c(=O)cc(-c5ccc(O)cc5)oc34)c(-c3ccc(O)cc3)oc2c1` [NP-008941], the “% Inhibition at c = 50 µM” value at recombinant TbGAPDH (setting [6]) was “n.i”.

For the molecule `COc1ccc(/C=C/C(=O)c2c(OC)cc(OC)c(CC=C(C)C)c2OC)cc1` [NP-010904], the “% Inhibition at c = 50 µM” value on recombinant TbGAPDH (setting [6]) was “n.i”.

Turning to `CC(C)=CCC/C(C)=C/Cc1ccc(O)c(C(=O)c2c(O)cc(C(=O)O)cc2C(=O)O)c1O` [NP-011694 (1)], the inhibition at 50 µM at recombinant TbGAPDH (setting [6]) is over 50%. Further, the IC50 on recombinant TbGAPDH (setting [7]) was 24.6 ± 1.03 µM; in series [1] (setting [8]), 39.5 ± 3.1 µM; in series [2] (rat), 50.6 ± 3.8 µM. The “SI (selectivity index)” value in series [3] was 1.3.

Regarding `CC(C)=CCc1c(O)c2c(c3c1OC(C)(C)C=C3)OCC(c1ccc(O)cc1O)C2=O` (stereo not drawn) [NP-012278], the inhibition at 50 µM at recombinant TbGAPDH (setting [6]) turned out to be 24%.

Take `CC(C)=CCc1c(O)c(CC=C(C)C)c2occ(-c3ccc(O)c(O)c3)c(=O)c2c1O` [NP-013070]: the inhibition at 50 µM on recombinant TbGAPDH (setting [6]) was 33%.

For `CC(C)=CCC/C(C)=C/Cc1ccc(O)c(C(=O)c2c(O)cc(C(=O)O)cc2C=O)c1O` [NP-013296 (2)], the IC50 is 4.73 ± 1.04 µM at recombinant TbGAPDH (setting [7]), 41 ± 0.5 µM in series [1] (setting [8]) and 48.7 ± 3.8 µM in series [2] (rat). For the same molecule, the results for the “SI (selectivity index)” value in series [3] and in series [3] (listed as 2) were 1.2 and “not significantly selective”, respectively.

Take `CCCC(=O)c1c(O)c(C)c(O)c(CC2=C(O)C(C)(C)C(O)=C(C(C)=O)C2=O)c1O` [NP-013330 (3), flavaspidic acid AB]: the IC50 at recombinant TbGAPDH worked out at 22 ± 1.03 µM; in series [1] (setting [8]), 17.9 ± 1.6 µM; in series [2] (setting [9]), 54.2 ± 0.5 µM. In addition, the “SI (selectivity index)” value is listed as 3.0 in series [3] and “not significantly selective; also recorded: three” in series [3] (listed as 3).

Consider `CC(C)=CCC/C(C)=C/Cc1ccc(O)c(C(=O)c2c(O)cc(C=O)cc2C(=O)O)c1O` [NP-013378 (4)], for which the IC50 came out at 6.68 ± 1.04 µM on recombinant TbGAPDH (setting [7]), 6.7 ± 2.2 µM in series [1] (setting [8]) and 48.9 ± 4.1 µM in series [2] (rat). The “SI (selectivity index)” value is recorded as 7.3 in series [3] and “seven” in series [3] (listed as 4).

Take `Oc1cc(O)cc(CCC/C=C\CCCCCCCCCc2cc(O)cc(O)c2)c1` [NP-014428 (5)]: the IC50 is 22.8 ± 1.01 µM at recombinant TbGAPDH (setting [7]), 29.3 ± 6.3 µM in series [1] (setting [8]) and 15.5 ± 1.8 µM in series [2] (rat). Further, the “SI (selectivity index)” value in series [3] was determined as 0.5.

Take `O=C(/C=C\c1ccc(O)cc1)NCCCCNC(=O)/C=C/c1ccc(O)cc1` [NP-015973]: at recombinant TbGAPDH (setting [6]), the “% Inhibition at c = 50 µM” value is given as “n.i”.

As for `C/C=C(\NC(=O)CCCCCCCCCCCCCCC(=O)O)C(=O)O` [NP-019430], the inhibition at 50 µM on recombinant TbGAPDH (setting [6]) worked out at 45%.

Turning to `COc1cc([C@@H]2c3cc4c(cc3[C@H](O)[C@H]3COC(=O)[C@H]23)OCO4)cc(OC)c1OC` [Podophyllotoxin, reference compound], in series [2] (setting [9]), the IC50 was found to be 0.019 ± 0.002 µM.

`COC(=O)/C=C(\C)CC[C@@]1(C)[C@H](C)CC[C@@]2(C)C(C(=O)O)=CCC[C@H]12` [monomethyl kolavate]: the “fold less potent than Compound 2 (TbGAPDH IC50)” value in the series on TbGAPDH [4] is recorded as “about 2.5 fold”. Moreover, the IC50 in the series on TbGAPDH [5] was 12 µM.
